# Experimental data as given in patent US20230117034A1, “PYRAZOLOTRIAZINES” (Bayer Aktiengesellschaft, priority 2019, published 2023).
# Molecular target: T1, CDK2/CycE (Homo sapiens, UniProt P24941)
# T1 construct: purchased ProQinase GmbH (Freiburg, Germany); host or cells: insect cells (Sf9)
# Test: CDK2/CycE kinase assay (TR-FRET, 2 mM ATP)
# Type: biochemical
# Conditions: 2 mM ATP (high ATP); median; read-out: CDK2/CyclinE, 2 mM ATP (high ATP), IC50 (median)
# How it was run: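 GST-tagged human CDK2 and CycE from Sf9 cells, about 10 ng/ml, pre-incubated 15 min at 22 °C with compound in Tris/HCl pH 8.0 buffer. Reaction with 2 mM ATP and 0.75 µM biotinylated peptide for 25 min at 22 °C. Phospho-RB antibody TR-FRET (665/620 nm ratio) read after 1 h; data normalised to no-inhibitor and no-enzyme controls.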
row,IC50,Structure (SMILES)
1,5.17 µM,"Brc1cnn2c(NCc3nc4ccccc4[nH]3)nc(N3C[C@H]4CCCN[C@H]4C3)nc12 [Example 199, N-[(1H-benzimidazol-2-yl)methyl]-8-bromo-2-[(4aR, 7aR)-octahydro-6H-pyrrolo[3,4-b]pyridin-6-yl]pyrazolo[1,5-a][1,3,5]triazin-4-amine]"
2,> 20 µM,"CN(C)C1CCN(c2nc(NCc3nc4ccccc4[nH]3)n3ncc(Br)c3n2)CC1 [Example 201, N-[(1H-benzimidazol-2-yl)methyl]-8-bromo-2-[4-(dimethylamino)piperidin-1-yl]pyrazolo[1,5-a][1,3,5]triazin-4-amine]"
3,9.3 µM,"Cc1ccc2[nH]c(CNc3nc(N4C[C@@H]5CCCN[C@@H]5C4)nc4c(Br)cnn34)nc2c1 [Example 203, 8-bromo-N-[(5-methyl-1H-benzimidazol-2-yl)methyl]-2-[(4aS, 7aS)-octahydro-6H-pyrrolo[3,4-b]pyridin-6-yl]pyrazolo[1,5-a][1,3,5]triazin-4-amine]"
4,10.9 µM,"Cc1ccc2[nH]c(CNc3nc(N4CCNCC4)nc4c(Br)cnn34)nc2c1 [Example 204, 8-bromo-N-[(5-methyl-1H-benzimidazol-2-yl)methyl]-2-(piperazin-1-yl)pyrazolo[1,5-a][1,3,5]triazin-4-amine]"
5,> 20 µM,"COc1ccc2[nH]c(CNc3nc(N4C[C@@H](C)N[C@@H](C)C4)nc4c(Br)cnn34)nc2c1 [Example 205, 8-bromo-2-[(3R,5S)-3,5-dimethylpiperazin-1-yl]-N-[(5-methoxy-1 H-benzimidazol-2-yl)methyl]pyrazolo[1,5-a][1,3,5]triazin-4-amine]"
6,> 20 µM,"Cc1ccc2[nH]c(CNc3nc(N4C[C@@H](C)N[C@@H](C)C4)nc4c(Br)cnn34)nc2c1 [Example 209, 8-bromo-2-[(3R,5S)-3,5-dimethylpiperazin-1-yl]-N-[(5-methyl-1H-benzimidazol-2-yl)methyl]pyrazolo[1,5-a][1,3,5]triazin-4-amine]"
7,> 19 µM,"COc1cccc2[nH]c(CNc3nc(N4C[C@@H](C)N[C@@H](C)C4)nc4c(C5CC5)cnn34)nc12 [Example 212, 8-cyclopropyl-2-[(3R,5S)-3,5-dimethylpiperazin-1-yl]-N-[(4-methoxy-1H-benzimidazol-2-yl)methyl]pyrazolo[1,5-a][1,3,5]triazin-4-amine]"
8,15.2 µM,"CC1(C)CN(c2nc(NCc3nc4ccccc4[nH]3)n3ncc(Br)c3n2)CCN1 [Example 216, N-[(1H-benzimidazol-2-yl)methyl]-8-bromo-2-(3,3-dimethylpiperazin-1-yl)pyrazolo[1,5-a][1,3,5]triazin-4-amine]"
9,> 20 µM,"CN1CC[C@@H]2CN(c3nc(NCc4nc5ccccc5[nH]4)n4ncc(Br)c4n3)C[C@@H]21 [Example 217, N-[(1H-benzimidazol-2-yl)methyl]-8-bromo-2-[(3aR,6aR)-1-methylhexahydropyrrolo[3,4-b]pyrrol-5 (1H)-yl]pyrazolo[1,5-a][1,3,5]triazin-4-amine]"
10,5.78 µM,"CN1C[C@H]2C[C@@H]1CN2c1nc(NCc2nc3ccccc3[nH]2)n2ncc(Br)c2n1 [Example 218, N-[(1H-benzimidazol-2-yl)methyl]-8-bromo-2-[(1R,4R)-5-methyl-2,5-diazabicyclo[2.2.1]heptan-2-yl]pyrazolo[1,5-a][1,3,5]triazin-4-amine]"
11,> 20 µM,"CN1C[C@@H]2C[C@H]1CN2c1nc(NCc2nc3ccccc3[nH]2)n2ncc(Br)c2n1 [Example 219, N-[(1H-benzimidazol-2-yl)methyl]-8-bromo-2-[(1S,4S)-5-methyl-2,5-diazabicyclo[2.2.1]heptan-2-yl]pyrazolo[1,5-a][1,3,5]triazin-4-amine]"
12,5.01 µM,"CN1CC2CCC1CN2c1nc(NCc2nc3ccccc3[nH]2)n2ncc(Br)c2n1 (stereo not shown) [Example 221, N-(1H-benzimidazol-2-ylmethyl)-8-bromo-2-(5-methyl-2,5-diazabicyclo[2.2.2]octan-2-yl)pyrazolo[1,5-a][1,3,5]triazin-4-amine]"
13,14.6 µM,"CO[C@H]1CCN(c2nc(NCc3nc4ccccc4[nH]3)n3ncc(Br)c3n2)C1 [Example 222, N-[(1H-benzimidazol-2-yl)methyl]-8-bromo-2-[(3S)-3-methoxypyrrolidin-1-yl]pyrazolo[1,5-a][1,3,5]triazin-4-amine]"
14,14.4 µM,"CO[C@@H]1CCN(c2nc(NCc3nc4ccccc4[nH]3)n3ncc(Br)c3n2)C1 [Example 223, N-[(1H-benzimidazol-2-yl)methyl]-8-bromo-2-[(3R)-3-methoxypyrrolidin-1-yl]pyrazolo[1,5-a][1,3,5]triazin-4-amine]"
15,7.75 µM,"O[C@H]1CCN(c2nc(NCc3nc4ccccc4[nH]3)n3ncc(Br)c3n2)C1 [Example 224, (3S)-1-(4-{[(1H-benzimidazol-2-yl)methyl]amino}-8-bromopyrazolo[1,5-a][1,3,5]triazin-2-yl)pyrrolidin-3-ol]"
16,5.39 µM,"CC1(O)CCN(c2nc(NCc3nc4ccccc4[nH]3)n3ncc(Br)c3n2)C1 (stereo not shown) [Example 225, 1-[4-(1H-benzimidazol-2-ylmethylamino)-8-bromo-pyrazolo[1,5-a][1,3,5]triazin-2-yl]-3-methyl-pyrrolidin-3-ol]"

# Second part, the compound before the results:
row,Structure (SMILES),IC50
1,"Cc1ccc2[nH]c(CNc3nc(N4C[C@@H]5CCCN[C@@H]5C4)nc4c(C5CC5)cnn34)nc2c1 [Example 195, 8-cyclopropyl-N-[(5-methyl-1H-benzimidazol-2-yl)methyl]-2-[(4aS,7aS)-octahydro-6H-pyrrolo[3,4-b]pyridin-6-yl]pyrazolo[1,5-a][1,3,5]triazin-4-amine]",> 20 µM
2,"Cc1ccc2[nH]c(CNc3nc(N4C[C@H]5C[C@@H]4CO5)nc4c(C5CC5)cnn34)nc2c1 [Example 196, 8-cyclopropyl-N-[(5-methyl-1H-benzimidazol-2-yl)methyl]-2-[(1R,4R)-2-oxa-5-azabicyclo[2.2.1]heptan-5-yl]pyrazolo[1,5-a][1,3,5]triazin-4-amine]",> 19.8 µM
3,"COc1cccc2[nH]c(CNc3nc(N4CCN(C)CC4)nc4c(C5CC5)cnn34)nc12 [Example 197, 8-cyclopropyl-N-[(4-methoxy-1H-benzimidazol-2-yl)methyl]-2-(4-methylpiperazin-1-yl)pyrazolo[1,5-a][1,3,5]triazin-4-amine]",13.4 µM
4,"COc1cccc2[nH]c(CNc3nc(N4C[C@H]5C[C@@H]4CO5)nc4c(C5CC5)cnn34)nc12 [Example 198, 8-cyclopropyl-N-[(4-methoxy-1H-benzimidazol-2-yl)methyl]-2-[(1R,4R)-2-oxa-5-azabicyclo[2.2.1]heptan-5-yl]pyrazolo[1,5-a][1,3,5]triazin-4-amine]",9.94 µM
5,"OC1(C(F)(F)F)CCN(c2nc(NCc3nc4ccccc4[nH]3)n3ncc(Br)c3n2)C1 (stereo not shown) [Example 200, 1-[4-(1H-benzimidazol-2-ylmethylamino)-8-bromo-pyrazolo[1,5-a][1,3,5]triazin-2-yl]-3-(trifluoromethyl)pyrrolidin-3-ol]",4.63 µM
6,"Cc1ccc2[nH]c(CNc3nc(N4CCN(C)CC4)nc4c(C5CC5)cnn34)nc2c1 [Example 210, 8-cyclopropyl-N-[(5-methyl-1H-benzimidazol-2-yl)methyl]-2-(4-methylpiperazin-1-yl)pyrazolo[1,5-a][1,3,5]triazin-4-amine]",> 20 µM
7,"COc1cccc2[nH]c(CNc3nc(N4CCNCC4)nc4c(C5CC5)cnn34)nc12 [Example 211, 8-cyclopropyl-N-[(4-methoxy-1H-benzimidazol-2-yl)methyl]-2-(piperazin-1-yl)pyrazolo[1,5-a][1,3,5]triazin-4-amine]",8.56 µM
8,"COc1cccc2[nH]c(CNc3nc(N4CCOCC4)nc4c(C5CC5)cnn34)nc12 [Example 213, 8-cyclopropyl-N-[(4-methoxy-1H-benzimidazol-2-yl)methyl]-2-morpholino-pyrazolo[1,5-a][1,3,5]triazin-4-amine]",5.49 µM
9,"COc1cccc2[nH]c(CNc3nc(N4C[C@@H]5CCCN[C@@H]5C4)nc4c(C5CC5)cnn34)nc12 [Example 214, 8-cyclopropyl-N-[(4-methoxy-1H-benzimidazol-2-yl)methyl]-2-[(4aS,7aS)-octahydro-6H-pyrrolo[3,4-b]pyridin-6-yl]pyrazolo[1,5-a][1,3,5]triazin-4-amine]",17.7 µM
10,"Brc1cnn2c(NCc3nc4ccccc4[nH]3)nc(N3CCC4(CCCN4)C3)nc12 (stereo not shown) [Example 215, N-(1H-benzimidazol-2-ylmethyl)-8-bromo-2-(1,7-diazaspiro[4.4]nonan-7-yl)pyrazolo[1,5-a][1,3,5]triazin-4-amine]",8.98 µM
11,"Brc1cnn2c(NCc3nc4ccccc4[nH]3)nc(N3CC4CCC3CN4)nc12 (stereo not shown) [Example 220, N-(1H-benzimidazol-2-ylmethyl)-8-bromo-2-(2,5-diazabicyclo[2.2.2]octan-2-yl)pyrazolo[1,5-a][1,3,5]triazin-4-amine]",0.908 µM
12,"CN1CC2CCC(C1)N2c1nc(NCc2nc3ccccc3[nH]2)n2ncc(Br)c2n1 [Example 226, N-(1H-benzimidazol-2-ylmethyl)-8-bromo-2-(3-methyl-3,8-diazabicyclo[3.2.1]octan-8-yl)pyrazolo[1,5-a][1,3,5]triazin-4-amine]",> 20 µM
13,"CCNc1nc(NCc2nc3ccccc3[nH]2)n2ncc(Br)c2n1 [Example 227, N4-(1H-benzimidazol-2-ylmethyl)-8-bromo-N2-ethyl-pyrazolo[1,5-a][1,3,5]triazine-2,4-diamine]",1.87 µM
14,"OCCNc1nc(NCc2nc3ccccc3[nH]2)n2ncc(Br)c2n1 [Example 228, 2-[(4-{[(1H-benzimidazol-2-yl)methyl]amino}-8-bromopyrazolo[1,5-a][1,3,5]triazin-2-yl)amino]ethan-1-ol]",9.21 µM
15,"CC(C)(O)CNc1nc(NCc2nc3ccccc3[nH]2)n2ncc(Br)c2n1 [Example 229, 1-[(4-{[(1H-benzimidazol-2-yl)methyl]amino}-8-bromopyrazolo[1,5-a][1,3,5]triazin-2-yl)amino]-2-methylpropan-2-ol]",1.46 µM
